Where two headings read alike, the source gives them in different places.

These results are taken from paper PMC4858680, “A platinum-based hybrid drug design approach to circumvent acquired resistance to molecular targeted tyrosine kinase inhibitors” (Scientific Reports, 2016).

Common to all, as to assay type: binding
The target of one assay is T1, TXK (Homo sapiens, UniProt P42681).
T1 construct: purchased DiscoveRx (KINOMEscan service)
T1 sequence (P42681 1-527): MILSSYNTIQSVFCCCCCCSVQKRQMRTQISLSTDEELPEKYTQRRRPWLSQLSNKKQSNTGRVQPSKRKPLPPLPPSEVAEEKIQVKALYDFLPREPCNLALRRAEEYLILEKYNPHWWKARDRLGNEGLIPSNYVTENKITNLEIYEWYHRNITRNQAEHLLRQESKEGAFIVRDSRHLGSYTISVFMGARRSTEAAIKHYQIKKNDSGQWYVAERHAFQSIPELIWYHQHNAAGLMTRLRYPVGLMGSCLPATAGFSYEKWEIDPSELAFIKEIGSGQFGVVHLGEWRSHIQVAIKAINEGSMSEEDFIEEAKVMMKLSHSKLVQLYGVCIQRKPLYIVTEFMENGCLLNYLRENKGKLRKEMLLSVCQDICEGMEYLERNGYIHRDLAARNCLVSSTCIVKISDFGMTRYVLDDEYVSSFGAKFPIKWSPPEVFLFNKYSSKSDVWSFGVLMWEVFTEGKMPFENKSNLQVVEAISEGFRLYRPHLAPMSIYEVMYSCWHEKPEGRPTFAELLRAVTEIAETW
To be noted: for Percent control: 10 μM; for remaining binding at 10 µM: read-out: Percent control.

For another assay, the target named is T2, MERTK (Homo sapiens, UniProt Q12866).
T2 construct: purchased DiscoveRx KINOMEscan
T2 sequence (Q12866 21-999): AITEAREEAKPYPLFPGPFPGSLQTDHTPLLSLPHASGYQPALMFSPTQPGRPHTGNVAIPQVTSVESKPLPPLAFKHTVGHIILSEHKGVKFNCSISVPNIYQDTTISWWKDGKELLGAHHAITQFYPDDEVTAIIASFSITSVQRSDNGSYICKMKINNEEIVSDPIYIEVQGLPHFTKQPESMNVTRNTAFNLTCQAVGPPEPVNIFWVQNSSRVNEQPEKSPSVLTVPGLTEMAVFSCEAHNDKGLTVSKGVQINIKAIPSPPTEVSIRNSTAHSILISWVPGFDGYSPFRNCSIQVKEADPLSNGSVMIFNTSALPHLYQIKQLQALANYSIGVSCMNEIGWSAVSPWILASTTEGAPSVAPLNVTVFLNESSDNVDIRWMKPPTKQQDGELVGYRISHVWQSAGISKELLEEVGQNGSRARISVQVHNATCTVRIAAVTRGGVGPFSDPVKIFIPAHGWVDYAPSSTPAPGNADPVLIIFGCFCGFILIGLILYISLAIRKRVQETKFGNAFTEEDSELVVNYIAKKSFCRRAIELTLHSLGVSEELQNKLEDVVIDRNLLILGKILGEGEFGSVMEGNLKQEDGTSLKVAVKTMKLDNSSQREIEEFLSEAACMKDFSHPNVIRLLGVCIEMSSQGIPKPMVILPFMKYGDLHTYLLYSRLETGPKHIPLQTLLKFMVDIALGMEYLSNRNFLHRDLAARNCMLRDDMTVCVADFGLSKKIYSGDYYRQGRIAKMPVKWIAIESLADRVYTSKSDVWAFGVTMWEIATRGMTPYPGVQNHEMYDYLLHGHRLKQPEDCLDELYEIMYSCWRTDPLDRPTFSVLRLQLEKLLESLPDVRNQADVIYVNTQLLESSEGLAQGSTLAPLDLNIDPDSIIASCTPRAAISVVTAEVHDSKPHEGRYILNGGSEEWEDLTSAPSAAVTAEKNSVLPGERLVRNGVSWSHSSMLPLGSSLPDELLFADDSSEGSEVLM
To be noted: for remaining binding at 10 µM: read-out: Percent control.

The next assay deals with T3, MUSK (Homo sapiens, UniProt O15146).
T3 construct: purchased DiscoveRx KINOMEscan
T3 sequence (O15146 24-869): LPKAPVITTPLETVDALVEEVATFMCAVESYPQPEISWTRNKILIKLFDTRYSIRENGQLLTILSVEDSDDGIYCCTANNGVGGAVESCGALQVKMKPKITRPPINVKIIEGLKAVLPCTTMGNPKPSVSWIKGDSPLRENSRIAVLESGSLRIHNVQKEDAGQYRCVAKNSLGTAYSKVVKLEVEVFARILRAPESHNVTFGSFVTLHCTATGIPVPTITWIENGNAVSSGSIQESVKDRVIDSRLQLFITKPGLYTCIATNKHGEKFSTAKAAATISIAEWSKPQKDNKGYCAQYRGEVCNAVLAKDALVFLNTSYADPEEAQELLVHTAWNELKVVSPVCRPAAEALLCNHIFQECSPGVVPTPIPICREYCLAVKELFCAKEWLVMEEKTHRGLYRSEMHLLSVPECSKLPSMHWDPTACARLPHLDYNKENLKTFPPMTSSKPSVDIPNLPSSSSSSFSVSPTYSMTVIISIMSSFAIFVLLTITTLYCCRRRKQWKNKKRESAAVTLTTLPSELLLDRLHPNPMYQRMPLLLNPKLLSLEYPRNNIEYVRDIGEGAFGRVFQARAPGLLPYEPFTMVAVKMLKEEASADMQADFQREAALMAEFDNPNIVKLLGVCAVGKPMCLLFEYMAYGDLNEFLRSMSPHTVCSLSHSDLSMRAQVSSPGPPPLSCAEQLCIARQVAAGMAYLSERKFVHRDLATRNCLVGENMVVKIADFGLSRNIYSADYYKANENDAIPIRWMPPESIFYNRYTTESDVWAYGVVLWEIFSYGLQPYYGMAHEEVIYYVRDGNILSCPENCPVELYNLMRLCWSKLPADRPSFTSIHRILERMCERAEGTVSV
To be noted: for remaining binding at 10 µM: read-out: Percent control.

Assay [1] concerns the target T4, TYK2(JH1domain-catalytic) (Homo sapiens, UniProt P29597).
T4 construct: TYK2(JH1domain-catalytic); purchased DiscoveRx (KINOMEscan service)
T4 sequence (P29597 897-1176 limits assumed): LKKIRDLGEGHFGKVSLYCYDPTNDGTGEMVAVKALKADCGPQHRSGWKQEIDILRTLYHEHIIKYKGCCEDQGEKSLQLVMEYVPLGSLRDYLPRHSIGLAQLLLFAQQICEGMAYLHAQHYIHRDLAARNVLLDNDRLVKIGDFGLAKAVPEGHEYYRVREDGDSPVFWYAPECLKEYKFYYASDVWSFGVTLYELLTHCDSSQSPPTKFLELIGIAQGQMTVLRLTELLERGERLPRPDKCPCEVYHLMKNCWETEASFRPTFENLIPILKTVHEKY
To be noted: for Percent control: 10 μM; for remaining binding at 10 µM: read-out: Percent control.

In assay [2] the target is T5, TYK2(JHSdomain-pseudokinase) (Homo sapiens, UniProt P29597).
T5 construct: TYK2(JHSdomain-pseudokinase); purchased DiscoveRx Corporation (KINOMEscan service)
To be noted: for Percent control: 10 μM; for remaining binding at 10 µM: read-out: Percent control.

T5 sequence (P29597 589-875 limits assumed): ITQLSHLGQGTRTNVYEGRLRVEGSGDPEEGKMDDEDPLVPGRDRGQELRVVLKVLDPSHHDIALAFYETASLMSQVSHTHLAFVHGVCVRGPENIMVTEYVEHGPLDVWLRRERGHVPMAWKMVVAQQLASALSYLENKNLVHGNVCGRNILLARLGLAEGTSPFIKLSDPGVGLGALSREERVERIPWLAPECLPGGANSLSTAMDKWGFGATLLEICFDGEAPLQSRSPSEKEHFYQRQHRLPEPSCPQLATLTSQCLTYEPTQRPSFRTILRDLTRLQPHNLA

For `Cc1ccc(NC(=O)c2ccc(CN3CCN(C)CC3)cc2)cc1Nc1nccc(-c2cccnc2)[n+]1[Pt-2]1([Cl])[NH2+]C2CCCCC2[NH2+]1` (stereo not drawn) [1b, oxaliplatin-imatinib], the Percent control is 87% at TXK; 100% at MERTK (MERTK, 10 μM); 100% on MUSK (MUSK, 10 μM); 94% in assay [1]; 100% in assay [2].
Consider `C#Cc1cccc(Nc2c3cc(OCCOC)c(OCCOC)cc3nc[n+]2[Pt@SP2-2]([NH3+])([NH3+])[Cl])c1` [2a, cisplatin-erlotinib], for which the Percent control was found to be 76% on TXK; 100% at MERTK (MERTK, 10 μM); 97% on MUSK (MUSK, 10 μM); 92% in assay [1]; 100% in assay [2].
As to `COc1cc2c(Nc3ccc(Br)cc3F)[n+]([Pt-2]3([Cl])[NH2+]C4CCCCC4[NH2+]3)cnc2cc1OCC1CCN(C)CC1` (stereo not drawn) [3b, oxaliplatin-vandetanib], the Percent control at TXK was determined as 56%; at MERTK (MERTK, 10 μM) it was 17%; at MUSK (MUSK, 10 μM), 95%; in assay [1] it was 83%; in assay [2], 100%.
As for `C#Cc1cccc(Nc2ncnc3cc(OCCOC)c(OCCOC)cc23)c1` [Erlotinib], the remaining binding at 10 µM is 27.5% on TXK; 8.9% at MERTK; 100% at MUSK; 100% in assay [1]; 19.4% in assay [2].
With `Cc1ccc(NC(=O)c2ccc(CN3CCN(C)CC3)cc2)cc1Nc1nccc(-c2cccnc2)n1` [Imatinib, reference compound], the Percent control amounted to 100% at TXK; 100% on MERTK (MERTK, 10 μM); 100% on MUSK (MUSK, 10 μM). Moreover, the remaining binding at 10 µM in assay [1] was determined as 100%; in assay [2], 46.5%.
For `COc1cc2c(Nc3ccc(Br)cc3F)ncnc2cc1OCC1CCN(C)CC1` [Vandetanib, reference compound], the remaining binding at 10 µM at TXK came to 27%; on MERTK (MERTK, 10 μM) it was 12.3%; at MUSK (MUSK, 10 μM) it was 100%; in assay [1], 100%; in assay [2], 100%.
